Results on six compounds are retold here after US20100313310A1, “METHOD FOR IMPROVED UTILIZATION OF THE PRODUCTION POTENTIAL OF TRANSGENIC PLANTS” (priority 2006, published 2010).

In data set [1] the test system is armyworm (Spodoptera frugiperda). In words: Spray treatment of transgenic maize lines against armyworm, kill in %, Colby synergy. It is filed as in vivo. Particulars: spirotetramate at 100 ppm by spray where applied. From the text:
(§1) This is based on the following calculation base and assumption (“Colby formula”): […]
(§2) If • X is the kill rate, expressed in % of the untreated and not transgenically modified control, when employing the active compound A at an application rate of m g/ha or at a concentration of m ppm, • Y is the kill rate, expressed in % of the untreated and not transgenically modified control, when using a transgenic plant and • E is the kill rate, expressed in % of the untreated and not transgenically modified control, when employing active compound A and using a transgenically modified plant, the application rate being m and n g/ha or the concentration being m and n ppm, then
(§3) If the actual kill rate (i.e. the activity observed) is higher than the calculated one, the combination of active compound treatment and transgenically modified plant is superadditive in its kill, i.e. a synergistic effect between the active compound treatment and the use of a transgenic plant is present. In this case, the actually observed kill rate must thus be higher than the value calculated using the formula above for the kill rate (E). […]
(§4) After a desired period of time, the kill in % is determined by counting the animals. […]

In data set [2] the test system is cotton aphid (Aphis gossypii). In words: Spray treatment of transgenic cotton (line DP444 BG/RR) populated by cotton aphid, kill in %, Colby synergy. In kind it is in vivo. Particulars: spirotetramate at 100 ppm by spray where applied.
From the text: as §1, §2, §3, §4

Data set [3] relates to armyworm (Spodoptera exigua). In words: Spray treatment of transgenic maize lines against larvae of the armyworm, kill in %, Colby synergy. It is filed as in vivo. Particulars: spirotetramate at 100 ppm by spray where applied.
From the text: as §1, §2, §3, §4

The compound `COC1CCC2(CC1)NC(=O)C(c1c(C)cc(C)c(C)c1C)=C2O` (stereo not drawn) gave a melting point greater than 220 °C.

As for spirotetramate, the “Kill in % after 1d (observed)” value in data set [1] (after 1 d) came to 0%. Moreover, the “Kill in % after 4d (observed)” value in data set [1] (after 4 d) amounted to 60%; in data set [2], 35%; in data set [3] it was 10%.

`CCOC(=O)OC1=C(c2cc(C)c(Cl)cc2C)C(=O)NC12CCC(OC)CC2` (stereo not drawn) displayed a melting point of 162 °C.

As for `COC1CCC2(CC1)NC(=O)C(c1c(C)ccc(Br)c1C)=C2O` (stereo not drawn), the melting point is greater than 220 °C.

The compound `COC1CCC2(CC1)NC(=O)C(c1c(C)ccc(Cl)c1C)=C2O` (stereo not drawn) had a melting point of 219 °C.

In the case of `COC1CCC2(CC1)NC(=O)C(c1cc(C)ccc1C)=C2O` (stereo not drawn), the melting point is greater than 220 °C.

The melting point is the temperature of the solid-liquid transition.
